31 molecules from patent US12071404B2, “Aza (indole)-, benzothiophene-, and benzofuran-3-sulfonamides” (UCB Pharma GmbH, priority 2016, dated 2024) can be followed below.

Assay [1] concerns the target T1, GPR17 (Homo sapiens, UniProt Q13304). The assay can be described thus: cAMP accumulation functional assay (HTRF, Schild analysis). Further details: host or cells: Flp-In T-REx CHO. The format is cell-based. The conditions noted are these: CHO hGPR17 cells, Schild analysis vs MDL29,951, 5 μM forskolin, read-out: cAMP assay pA2 (converted). An outline of the steps: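 Antagonist affinity (pA2) came from Schild plots of dose ratios, based on MDL29,951 concentration-response curves fitted by 4-parameter logistic. The read-out was HTRF cAMP in 5,000 doxycycline-induced CHO hGPR17 cells per well, with 30 min compound preincubation and 60 min stimulation, at room temperature in pH 7.4 buffer.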
On the technique in general: Changes in cAMP serve as a functional read-out for many G protein-coupled receptors.

Assay [2] concerns the target T1, GPR17. Briefly: Calcium mobilization functional assay (GPR17 Ca2+ assay). The format is cell-based. Also noted: host or cells: Flp-In T-REx CHO. To be noted: CHO hGPR17 cells, inhibition of 50 nM MDL29,951, Calcium 5 dye, FLIPR; read-out: Ca2+ assay pIC50 (converted). The gist of the method: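 pIC50 values were fitted with a 4-parameter logistic curve. They reflect test-compound inhibition of cytosolic Ca2+ release evoked by 50 nM MDL29,951, tracked as Calcium 5 fluorescence at room temperature. Cells were CHO Flp-In T-REx stably carrying human GPR17, induced with doxycycline 1 μg/mL for 16-20 h.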
On the technique in general: A change in cytosolic calcium serves as a functional read-out for many receptors and channels.

T1 sequence (Q13304 whole entry): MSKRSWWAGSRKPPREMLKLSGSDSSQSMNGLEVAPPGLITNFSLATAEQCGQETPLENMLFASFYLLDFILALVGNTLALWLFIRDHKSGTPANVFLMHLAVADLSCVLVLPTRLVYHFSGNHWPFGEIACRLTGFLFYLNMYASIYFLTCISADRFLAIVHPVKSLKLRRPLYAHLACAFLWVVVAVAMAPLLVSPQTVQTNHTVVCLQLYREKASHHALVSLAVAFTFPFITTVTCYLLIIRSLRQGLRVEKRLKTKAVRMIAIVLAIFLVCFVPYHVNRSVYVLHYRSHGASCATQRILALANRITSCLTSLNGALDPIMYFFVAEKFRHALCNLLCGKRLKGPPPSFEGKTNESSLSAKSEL

With `COc1nc(NS(=O)(=O)c2c[nH]c3c2ccc2cccnc23)c(F)cc1Cl` [Compound I-328, N-(5-chloro-3-fluoro-6-methoxypyridin-2-yl)-1H-pyrrolo[3,2-h]quinoline-3-sulfonamide], the Kb in assay [1] is less than 3.16 nM. The IC50 in assay [2] is less than 3.16 nM.

For the molecule `COc1nc(NS(=O)(=O)c2c[nH]c3c2ccc2ccccc23)c(F)cc1Cl` [Compound I-329, N-(5-chloro-3-fluoro-6-methoxypyridin-2-yl)-1H-benzo[g]indole-3-sulfonamide], in assay [1], the Kb was less than 3.16 nM. In addition, the IC50 in assay [2] was less than 3.16 nM.

Regarding `CCOC(=O)/C=C/c1cc(F)c(NS(=O)(=O)c2c[nH]c3cc(Cl)ccc23)nc1F` [Compound I-330, Ethyl (2E)-3-(6-{[(6-chloro-1H-indol-3-yl)sulfonyl]amino}-2,5-difluoropyridin-3-yl)prop-2-enoate], the Kb in assay [1] was less than 3.16 nM. In assay [2], the IC50 was 3.16 to 31.6 nM.

Turning to `CCOC(=O)CCc1cc(F)c(NS(=O)(=O)c2c[nH]c3cc(Cl)ccc23)nc1F` [Compound I-331, ethyl 3-(6-{[(6-chloro-1H-indol-3-yl)sulfonyl]amino}-2,5-difluoropyridin-3-yl)propanoate], the Kb in assay [1] was less than 3.16 nM. In addition, the IC50 in assay [2] is less than 3.16 nM.

As for `CCO/C=C/c1cc(F)c(NS(=O)(=O)c2c[nH]c3cc(Cl)ccc23)nc1F` [Compound I-332, 6-chloro-N-{5-[(E)-2-ethoxyethenyl]-3,6-difluoropyridin-2-yl}-1H-indole-3-sulfonamide], the Kb in assay [1] is less than 3.16 nM. The IC50 in assay [2] was 3.16 to 31.6 nM.

As to `CCOCCc1cc(F)c(NS(=O)(=O)c2c[nH]c3cc(Cl)ccc23)nc1F` [Compound I-333, 6-chloro-N-[5-(2-ethoxyethyl)-3,6-difluoropyridin-2-yl]-1H-indole-3-sulfonamide], in assay [1], the Kb is less than 3.16 nM. For the same molecule, in assay [2], the IC50 is less than 3.16 nM.

As to `N#Cc1ccc(NS(=O)(=O)c2c[nH]c3cc(N=[N+]=[N-])ccc23)c(F)c1` [Compound I-335, 6-azido-N-(4-cyano-2-fluorophenyl)-1H-indole-3-sulfonamide], the Kb in assay [1] was 3.16 to 31.6 nM. For the same molecule, the IC50 in assay [2] was 3.16 to 31.6 nM.

Consider `COc1nc(NS(=O)(=O)c2c[nH]c3nc(Cl)ccc23)c(F)cc1Cl` [Compound I-336, 6-chloro-N-(5-chloro-3-fluoro-6-methoxypyridin-2-yl)-1H-pyrrolo[2,3-b]pyridine-3-sulfonamide], for which the Kb in assay [1] was 3.16 to 31.6 nM. The IC50 in assay [2] was less than 3.16 nM.

For `C=Cc1cc(F)c(NS(=O)(=O)c2c[nH]c3cc(Cl)ccc23)nc1F` [Compound I-337, 6-chloro-N-(5-ethenyl-3,6-difluoropyridin-2-yl)-1H-indole-3-sulfonamide], in assay [1], the Kb was less than 3.16 nM. Besides, in assay [2], the IC50 is 3.16 to 31.6 nM.

In the case of `CCc1cc(F)c(NS(=O)(=O)c2c[nH]c3cc(Cl)ccc23)nc1F` [Compound I-338, 6-chloro-N-(5-ethyl-3,6-difluoropyridin-2-yl)-1H-indole-3-sulfonamide], the Kb in assay [1] is less than 3.16 nM. In assay [2], the IC50 was less than 3.16 nM.

In the case of `COc1nc(NS(=O)(=O)c2c[nH]c3cc(Cl)c(F)cc23)c(F)cc1Cl` [Compound I-339, 6-chloro-N-(5-chloro-3-fluoro-6-methoxypyridin-2-yl)-5-fluoro-1H-indole-3-sulfonamide], the Kb in assay [1] was 3.16 to 31.6 nM. Besides, in assay [2], the IC50 was less than 3.16 nM.

Turning to `COc1nc(NS(=O)(=O)c2c[nH]c3c(F)c(Cl)c(F)cc23)c(F)cc1Cl` [Compound I-340, 6-chloro-N-(5-chloro-3-fluoro-6-methoxypyridin-2-yl)-5,7-difluoro-1H-indole-3-sulfonamide], in assay [1], the Kb was 3.16 to 31.6 nM. For the same molecule, the IC50 in assay [2] is 3.16 to 31.6 nM.

With `N#Cc1ccc(NS(=O)(=O)c2c[nH]c3c(Br)c(Cl)ccc23)c(F)c1` [Compound I-341, 7-bromo-6-chloro-N-(4-cyano-2-fluorophenyl)-1H-indole-3-sulfonamide], the Kb in assay [1] was less than 3.16 nM. Further, the IC50 in assay [2] is less than 3.16 nM.

Consider `N#CCOc1cc(F)c(NS(=O)(=O)c2coc3cc(Cl)ccc23)cc1F` [Compound I-342, 6-chloro-N-[4-(cyanomethoxy)-2,5-difluorophenyl]-1-benzofuran-3-sulfonamide], for which the Kb in assay [1] is 3.16 to 31.6 nM. Further, in assay [2], the IC50 is 3.16 to 31.6 nM.

In the case of `N#Cc1ccc(NS(=O)(=O)c2c[nH]c3cc(Cl)c(Br)cc23)c(F)c1` [Compound I-343, 5-bromo-6-chloro-N-(4-cyano-2-fluorophenyl)-1H-indole-3-sulfonamide], the Kb in assay [1] is less than 3.16 nM. Besides, in assay [2], the IC50 was 3.16 to 31.6 nM.

Regarding `COc1cc(C(F)(F)F)cnc1NS(=O)(=O)c1c[nH]c2cc(Cl)ccc12` [Compound I-344, 6-chloro-N-[3-methoxy-5-(trifluoromethyl)pyridin-2-yl]-1H-indole-3-sulfonamide], the Kb in assay [1] was 3.16 to 31.6 nM. Besides, the IC50 in assay [2] is 3.16 to 31.6 nM.

`COc1nc(NS(=O)(=O)c2c[nH]c3cc(Cl)ccc23)c(F)cc1F` [Compound I-345, 6-chloro-N-(3,5-difluoro-6-methoxypyridin-2-yl)-1H-indole-3-sulfonamide]: the Kb in assay [1] was 3.16 to 31.6 nM. Further, the IC50 in assay [2] is 3.16 to 31.6 nM.

Consider `COc1nc(NS(=O)(=O)c2coc3cc(Cl)ccc23)c(F)cc1Cl` [Compound I-346, 6-chloro-N-(5-chloro-3-fluoro-6-methoxypyridin-2-yl)-1-benzofuran-3-sulfonamide], for which the Kb in assay [1] is 3.16 to 31.6 nM. Moreover, the IC50 in assay [2] is 3.16 to 31.6 nM.

With `O=S(=O)(Nc1cc(F)c(Cl)cc1F)c1c[nH]c2c(Cl)c(Br)ccc12` [Compound I-347, 6-bromo-7-chloro-N-(4-chloro-2,5-difluorophenyl)-1H-indole-3-sulfonamide], the Kb in assay [1] was less than 3.16 nM. For the same molecule, the IC50 in assay [2] was 3.16 to 31.6 nM.

Turning to `Cc1cc(F)c(NS(=O)(=O)c2c[nH]c3cc(Cl)ccc23)nc1F` [Compound I-348, 6-chloro-N-(3,6-difluoro-5-methylpyridin-2-yl)-1H-indole-3-sulfonamide], the Kb in assay [1] is 3.16 to 31.6 nM. For the same molecule, the IC50 in assay [2] was less than 3.16 nM.

Consider `COc1cc(Br)c(F)nc1NS(=O)(=O)c1c[nH]c2cc(Cl)ccc12` [Compound I-349, N-(5-bromo-6-fluoro-3-methoxypyridin-2-yl)-6-chloro-1H-indole-3-sulfonamide], for which the Kb in assay [1] was less than 3.16 nM. Further, the IC50 in assay [2] was less than 3.16 nM.

Regarding `COc1cc(CC#N)c(F)nc1NS(=O)(=O)c1c[nH]c2cc(Cl)ccc12` [Compound I-350, 6-chloro-N-[5-(cyanomethyl)-6-fluoro-3-methoxypyridin-2-yl]-1H-indole-3-sulfonamide], the Kb in assay [1] is less than 3.16 nM. Further, the IC50 in assay [2] was less than 3.16 nM.

Consider `COc1nc(NS(=O)(=O)c2c[nH]c3cc([N+](=O)[O-])ccc23)c(F)cc1CC#N` [Compound I-351, N-[5-(cyanomethyl)-3-fluoro-6-methoxypyridin-2-yl]-6-nitro-1H-indole-3-sulfonamide], for which the Kb in assay [1] was 3.16 to 31.6 nM. Further, the IC50 in assay [2] was 3.16 to 31.6 nM.

With `COc1nc(NS(=O)(=O)c2c[nH]c3cc(N)ccc23)c(F)cc1CC#N` [Compound I-352, 6-amino-N-[5-(cyanomethyl)-3-fluoro-6-methoxypyridin-2-yl]-1H-indole-3-sulfonamide], the Kb in assay [1] is 3.16 to 31.6 nM. Also, the IC50 in assay [2] is 3.16 to 31.6 nM.

As to `COc1nc(NS(=O)(=O)c2c[nH]c3cc(N=[N+]=[N-])ccc23)c(F)cc1CC#N` [Compound I-353, 6-azido-N-[5-(cyanomethyl)-3-fluoro-6-methoxypyridin-2-yl]-1H-indole-3-sulfonamide], the Kb in assay [1] was less than 3.16 nM. The IC50 in assay [2] was less than 3.16 nM.

`COc1nc(NS(=O)(=O)c2c[nH]c3c(F)c(Cl)ccc23)c(F)cc1CC#N` [Compound I-354, 6-chloro-N-[5-(cyanomethyl)-3-fluoro-6-methoxypyridin-2-yl]-7-fluoro-1H-indole-3-sulfonamide]: in assay [1], the Kb is less than 3.16 nM. The IC50 in assay [2] is less than 3.16 nM.

With `Cc1cc(F)c(NS(=O)(=O)c2c[nH]c3c(F)c(Cl)ccc23)nc1F` [Compound I-355, 6-chloro-N-(3,6-difluoro-5-methylpyridin-2-yl)-7-fluoro-1H-indole-3-sulfonamide], in assay [1], the Kb was 3.16 to 31.6 nM. Also, in assay [2], the IC50 is less than 3.16 nM.

Consider `COc1ccc2c(S(=O)(=O)Nc3nc(OC)c(Cl)cc3F)c[nH]c2c1Cl` [Compound I-356, 7-chloro-N-(5-chloro-3-fluoro-6-methoxypyridin-2-yl)-6-methoxy-1H-indole-3-sulfonamide], for which the Kb in assay [1] is 3.16 to 31.6 nM. In assay [2], the IC50 is 3.16 to 31.6 nM.

With `COc1nc(NS(=O)(=O)c2c[nH]c3c(Cl)c(F)ccc23)c(F)cc1Cl` [Compound I-357, 7-chloro-N-(5-chloro-3-fluoro-6-methoxypyridin-2-yl)-6-fluoro-1H-indole-3-sulfonamide], the Kb in assay [1] was 3.16 to 31.6 nM. In addition, the IC50 in assay [2] is 3.16 to 31.6 nM.

With `COc1nc(NS(=O)(=O)c2c[nH]c3c(F)c(Cl)ccc23)c(F)cc1F` [Compound I-358, 6-chloro-N-(3,5-difluoro-6-methoxypyridin-2-yl)-7-fluoro-1H-indole-3-sulfonamide], the Kb in assay [1] is 3.16 to 31.6 nM. In addition, the IC50 in assay [2] is 3.16 to 31.6 nM.

Consider `CCOC(=O)C1CC1c1cc(F)c(NS(=O)(=O)c2c[nH]c3cc(Cl)ccc23)nc1F` (centres unmarked) [Compound I-359, ethyl 2-(6-{[(6-chloro-1H-indol-3-yl)sulfonyl]amino}-2,5-difluoropyridin-3-yl)cyclopropanecarboxylate], for which the Kb in assay [1] is 3.16 to 31.6 nM. Also, the IC50 in assay [2] is 3.16 to 31.6 nM.
